pIC50: −log10 of the molar value.
Tested on: 994946-033-R-J1-PDC complex spheroid viability
Test: Anticancer human tumor 994946-033-R-J1-PDC patient-derived melanoma cell line growth inhibition [POLQ]
Conditions: for pIC50: curve of first compound; for viability, T/C: stronger effect = lower value
Procedure, shortened: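 Patient-derived tumour cells were co-cultured with HUVEC and mesenchymal stem cells as multicellular spheroids at 37 °C. They were treated with POLQ inhibitors (novobiocin, ART-558, RP6685) alone or combined with other agents. Top concentrations were at or near clinical Cmax (otherwise 10 microM; SN-38 at 1 microM), decreasing in half-log steps.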

[1] = second compound 0.0316 µM, first compound 0.0316 µM
[2] = second compound 0.0316 µM, first compound 0.1 µM
[3] = second compound 0.0316 µM, first compound 0.316 µM
[4] = second compound 0.0316 µM, first compound 1 µM
[5] = second compound 0.0316 µM, first compound 3.16 µM
[6] = second compound 0.0316 µM, first compound 10 µM
[7] = second compound 0.1 µM, first compound 0.0316 µM
[8] = second compound 0.1 µM, first compound 0.1 µM
[9] = second compound 0.1 µM, first compound 0.316 µM
[10] = second compound 0.1 µM, first compound 1 µM
[11] = second compound 0.1 µM, first compound 3.16 µM
[12] = second compound 0.1 µM, first compound 10 µM
[13] = second compound 0.316 µM, first compound 0.0316 µM
[14] = second compound 0.316 µM, first compound 0.1 µM
[15] = second compound 0.316 µM, first compound 0.316 µM
[16] = second compound 0.316 µM, first compound 1 µM
[17] = second compound 0.316 µM, first compound 3.16 µM
[18] = second compound 0.316 µM, first compound 10 µM
[19] = second compound 1 µM, first compound 0.0316 µM
[20] = second compound 1 µM, first compound 0.1 µM
[21] = second compound 1 µM, first compound 0.316 µM
[22] = second compound 1 µM, first compound 1 µM
[23] = second compound 1 µM, first compound 3.16 µM
[24] = second compound 1 µM, first compound 10 µM
[25] = second compound 3.16 µM, first compound 0.0316 µM
[26] = second compound 3.16 µM, first compound 0.1 µM
[27] = second compound 3.16 µM, first compound 0.316 µM
[28] = second compound 3.16 µM, first compound 1 µM
[29] = second compound 3.16 µM, first compound 3.16 µM
[30] = second compound 3.16 µM, first compound 10 µM
[31] = second compound 10 µM, first compound 0.0316 µM
[32] = second compound 10 µM, first compound 0.1 µM
[33] = second compound 10 µM, first compound 0.316 µM
[34] = second compound 10 µM, first compound 1 µM
[35] = second compound 10 µM, first compound 3.16 µM
[36] = second compound 10 µM, first compound 10 µM
[37] = second compound 0.0316 µM, first compound 0.00316 µM
[38] = second compound 0.0316 µM, first compound 0.01 µM
[39] = second compound 0.1 µM, first compound 0.00316 µM
[40] = second compound 0.1 µM, first compound 0.01 µM
[41] = second compound 0.316 µM, first compound 0.00316 µM
[42] = second compound 0.316 µM, first compound 0.01 µM
[43] = second compound 1 µM, first compound 0.00316 µM
[44] = second compound 1 µM, first compound 0.01 µM
[45] = second compound 3.16 µM, first compound 0.00316 µM
[46] = second compound 3.16 µM, first compound 0.01 µM
[47] = second compound 10 µM, first compound 0.00316 µM
[48] = second compound 10 µM, first compound 0.01 µM
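Also: spheroids exposed to drugs for 7 days.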
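For viability, T/C in this document: 100% = DMSO vehicle treated spheroids.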

For `CCc1cc2c(N3CCc4c(cc(Cn5ccnc5)cc4-c4cn(C)nc4C(F)(F)F)C3=O)cc(C)nc2c(OC)n1` + Cc1cccc(N(C)C(=O)C2C(O)CCN2c2nc(C)cc(C(F)(F)F)c2C#N)c1, the pIC50 (second compound 0.0316 µM) was under 5.00, the pIC50 (second compound 0.1 µM) was under 5.00 and the pIC50 (second compound 0.316 µM) was under 5.00. It also gave a pIC50 (second compound 1 µM) of 5.21, a pIC50 (second compound 3.16 µM) of under 5.00 and a pIC50 (second compound 10 µM) of under 5.00. It also gave a viability, T/C [1] of 74.7%, a viability, T/C [2] of 61.9% and a viability, T/C [3] of 94.6%. For the same compound, the viability, T/C [4] was 79.2%, the viability, T/C [5] was 68.4% and the viability, T/C [6] was 69.9%. For the same compound, the viability, T/C [7] was 73%, the viability, T/C [8] was 84.7% and the viability, T/C [9] was 90.7%. It also gave a viability, T/C [10] of 88.8%, a viability, T/C [11] of 90.5% and a viability, T/C [12] of 77.6%. The viability, T/C [13] was 63%, the viability, T/C [14] was 78.5% and the viability, T/C [15] was 60.2%. For the same compound, the viability, T/C [16] was 66.5%, the viability, T/C [17] was 61.3% and the viability, T/C [18] was 53.1%. For the same compound, the viability, T/C [19] was 106%, the viability, T/C [20] was 76.1% and the viability, T/C [21] was 78.8%. It also gave a viability, T/C [22] of 81.4%, a viability, T/C [23] of 69.6% and a viability, T/C [24] of 38%. It also gave a viability, T/C [25] of 76.5%, a viability, T/C [26] of 83.3% and a viability, T/C [27] of 60.4%. For the same compound, the viability, T/C [28] was 74.3%, the viability, T/C [29] was 66.8% and the viability, T/C [30] was 67.6%. It also gave a viability, T/C [31] of 76%, a viability, T/C [32] of 73.2% and a viability, T/C [33] of 68.1%. For the same compound, the viability, T/C [34] was 89.2%, the viability, T/C [35] was 73.8% and the viability, T/C [36] was 64.1%.
`CC1COCCN1c1cc(C2(O)CC3CCC(C2)O3)c2cnn(-c3ccn[nH]3)c2n1` (stereo not drawn) + Cc1cccc(N(C)C(=O)C2C(O)CCN2c2nc(C)cc(C(F)(F)F)c2C#N)c1 was tested, and the pIC50 (second compound 0.0316 µM) was over 7.50, the pIC50 (second compound 0.1 µM) was 7.42 and the pIC50 (second compound 0.316 µM) was over 7.50. For the same compound, the pIC50 (second compound 1 µM) was over 7.50, the pIC50 (second compound 3.16 µM) was 7.48 and the pIC50 (second compound 10 µM) was over 7.50. For the same compound, the viability, T/C [1] was 49.5%, the viability, T/C [2] was 34.5% and the viability, T/C [3] was 14.3%. For the same compound, the viability, T/C [4] was 15.3%, the viability, T/C [5] was 14.6% and the viability, T/C [6] was 5.33%. For the same compound, the viability, T/C [7] was 52.7%, the viability, T/C [8] was 37% and the viability, T/C [9] was 18.8%. The viability, T/C [10] was 12.3%, the viability, T/C [11] was 12% and the viability, T/C [12] was 4%. It also gave a viability, T/C [13] of 46.8%, a viability, T/C [14] of 26.4% and a viability, T/C [15] of 14.6%. For the same compound, the viability, T/C [16] was 18.4%, the viability, T/C [17] was 12.7% and the viability, T/C [18] was 2.62%. It also gave a viability, T/C [19] of 42%, a viability, T/C [20] of 23.1% and a viability, T/C [21] of 20.9%. It also gave a viability, T/C [22] of 17%, a viability, T/C [23] of 12.5% and a viability, T/C [24] of 3.16%. It also gave a viability, T/C [25] of 51.6%, a viability, T/C [26] of 27.2% and a viability, T/C [27] of 23.2%. It also gave a viability, T/C [28] of 13.5%, a viability, T/C [29] of 12.7% and a viability, T/C [30] of 10.9%. For the same compound, the viability, T/C [31] was 47.1%, the viability, T/C [32] was 38.4% and the viability, T/C [33] was 18.7%. The viability, T/C [34] was 23%, the viability, T/C [35] was 9.14% and the viability, T/C [36] was 5.05%.
`C=CCn1c(=O)c2cnc(Nc3ccc(N4CCN(C)CC4)cc3)nc2n1-c1cccc(C(C)(C)O)n1` + Nc1ccc(C#CCN(C(=O)Cc2ncc(C(F)(F)F)cc2C(F)(F)F)c2ccc(F)cc2)nn1 showed a pIC50 (second compound 0.0316 µM) of 6.08, a pIC50 (second compound 0.1 µM) of 6.35 and a pIC50 (second compound 0.316 µM) of 6.40. It also gave a pIC50 (second compound 1 µM) of 6.11, a pIC50 (second compound 3.16 µM) of 6.15 and a pIC50 (second compound 10 µM) of 6.19. It also gave a viability, T/C [37] of 70.3%, a viability, T/C [38] of 122% and a viability, T/C [1] of 80%. The viability, T/C [2] was 95.6%, the viability, T/C [3] was 91.8% and the viability, T/C [4] was 42.4%. It also gave a viability, T/C [39] of 81%, a viability, T/C [40] of 107% and a viability, T/C [7] of 97.8%. It also gave a viability, T/C [8] of 103%, a viability, T/C [9] of 59.2% and a viability, T/C [10] of 28%. It also gave a viability, T/C [41] of 101%, a viability, T/C [42] of 124% and a viability, T/C [13] of 105%. The viability, T/C [14] was 81.7%, the viability, T/C [15] was 60.2% and the viability, T/C [16] was 20.6%. The viability, T/C [43] was 123%, the viability, T/C [44] was 100% and the viability, T/C [19] was 147%. For the same compound, the viability, T/C [20] was 109%, the viability, T/C [21] was 100% and the viability, T/C [22] was 36.2%. For the same compound, the viability, T/C [45] was 109%, the viability, T/C [46] was 105% and the viability, T/C [25] was 120%. For the same compound, the viability, T/C [26] was 85%, the viability, T/C [27] was 84.9% and the viability, T/C [28] was 36.4%. The viability, T/C [47] was 106%, the viability, T/C [48] was 82.5% and the viability, T/C [31] was 94.8%. It also gave a viability, T/C [32] of 95.4%, a viability, T/C [33] of 67.4% and a viability, T/C [34] of 39.1%.
Compound `COc1cccc(OCCCN)c1-c1cc(Nc2cnc(C#N)cn2)n[nH]1` + COC1C(OC(N)=O)C(O)C(Oc2ccc3c(O)c(NC(=O)c4ccc(O)c(CC=C(C)C)c4)c(=O)oc3c2C)OC1(C)C has a pIC50 (second compound 0.0316 µM) of 7.73, a pIC50 (second compound 0.1 µM) of 7.84 and a pIC50 (second compound 0.316 µM) of 7.92. The pIC50 (second compound 1 µM) was 8.25, the pIC50 (second compound 3.16 µM) was 7.76 and the pIC50 (second compound 10 µM) was 8.35. The viability, T/C [37] was 73.9%, the viability, T/C [38] was 69.9% and the viability, T/C [1] was 32.6%. For the same compound, the viability, T/C [2] was 24.9%, the viability, T/C [3] was 13.1% and the viability, T/C [4] was 9.24%. For the same compound, the viability, T/C [39] was 84.2%, the viability, T/C [40] was 60.2% and the viability, T/C [7] was 27.5%. For the same compound, the viability, T/C [8] was 14.4%, the viability, T/C [9] was 22% and the viability, T/C [10] was 11.6%. The viability, T/C [41] was 84.3%, the viability, T/C [42] was 52.7% and the viability, T/C [13] was 34.9%. It also gave a viability, T/C [14] of 11%, a viability, T/C [15] of 26.5% and a viability, T/C [16] of 18.1%. For the same compound, the viability, T/C [43] was 57.6%, the viability, T/C [44] was 42.3% and the viability, T/C [19] was 25.7%. The viability, T/C [20] was 17.3%, the viability, T/C [21] was 30.8% and the viability, T/C [22] was 13.8%. The viability, T/C [45] was 85.8%, the viability, T/C [46] was 54.5% and the viability, T/C [25] was 38.7%. It also gave a viability, T/C [26] of 32.7%, a viability, T/C [27] of 19.7% and a viability, T/C [28] of 9.09%. The viability, T/C [47] was 56.9%, the viability, T/C [48] was 34.2% and the viability, T/C [31] was 18.9%. The viability, T/C [32] was 21.2%, the viability, T/C [33] was 20.2% and the viability, T/C [34] was 17.5%.

Reference: PubChem BioAssay AID1963827 (Molecular Pharmacology Branch, DTP, NCI, 2024)
